From patent US4609655A, “Anti-ulcer imidazo-quinoline, indole and benzazepine derivatives” (John Wyeth & Brother, Ltd., priority 1983, dated 1986)
Read-outs that look alike come from different tables or passages of the source.

Experiments:
[1] = Stress-induced erosion test of Senay and Levine (anti-ulcer activity); assay type: in vivo; conditions: Dose 100 mg/kg
Protocol: Anti-ulcer activity was determined by the stressinduced erosion test of Senay and Levine, Proc. Soc. Exp. Biol. Med., 124, 1221-3 (1967).

[2] = biological target: T1, H^+ /K^+ ATPase (Oryctolagus cuniculus, UniProt P27112); test: Inhibition of 14C-aminopyrine uptake in rabbit isolated gastric glands stimulated by DBcAMP or high K+ (H+/K+ ATPase inhibition); assay type: cell-based; conditions: compound at 10^-4 M, % inhibition of maximum response
T1 construct: Rabbit gastric glands are isolated from gastric mucosa; from tissue; host or cells: isolated gastric glands from gastric mucosa of the corpus region of rabbit stomach
T1 sequence (P27112 whole entry): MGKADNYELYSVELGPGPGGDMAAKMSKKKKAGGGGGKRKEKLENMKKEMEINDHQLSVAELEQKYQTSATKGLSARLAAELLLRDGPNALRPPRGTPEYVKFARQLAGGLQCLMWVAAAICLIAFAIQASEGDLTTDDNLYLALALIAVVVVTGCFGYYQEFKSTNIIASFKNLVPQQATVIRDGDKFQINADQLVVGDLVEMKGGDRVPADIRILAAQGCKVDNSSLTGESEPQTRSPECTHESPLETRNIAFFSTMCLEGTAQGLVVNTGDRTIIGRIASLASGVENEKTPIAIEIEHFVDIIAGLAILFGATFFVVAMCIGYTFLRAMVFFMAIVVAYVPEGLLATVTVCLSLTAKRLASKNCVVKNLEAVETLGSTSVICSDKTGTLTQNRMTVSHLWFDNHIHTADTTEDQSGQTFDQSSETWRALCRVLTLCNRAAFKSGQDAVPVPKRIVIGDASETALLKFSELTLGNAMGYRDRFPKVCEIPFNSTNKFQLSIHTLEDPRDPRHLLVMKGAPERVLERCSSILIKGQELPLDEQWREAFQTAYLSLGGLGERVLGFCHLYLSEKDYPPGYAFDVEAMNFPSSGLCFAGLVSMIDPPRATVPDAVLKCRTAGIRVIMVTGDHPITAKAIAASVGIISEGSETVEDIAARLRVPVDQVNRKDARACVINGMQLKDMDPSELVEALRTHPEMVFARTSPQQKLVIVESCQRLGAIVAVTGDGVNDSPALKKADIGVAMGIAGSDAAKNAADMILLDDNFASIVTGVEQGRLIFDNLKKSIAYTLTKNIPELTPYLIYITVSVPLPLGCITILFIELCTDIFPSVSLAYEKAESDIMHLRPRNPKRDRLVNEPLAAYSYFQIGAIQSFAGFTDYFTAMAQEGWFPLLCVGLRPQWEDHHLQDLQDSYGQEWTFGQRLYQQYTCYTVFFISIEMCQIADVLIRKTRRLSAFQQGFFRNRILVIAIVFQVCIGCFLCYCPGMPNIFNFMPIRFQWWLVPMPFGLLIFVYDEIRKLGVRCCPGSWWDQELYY
T1 sequence (P18597 whole entry partner): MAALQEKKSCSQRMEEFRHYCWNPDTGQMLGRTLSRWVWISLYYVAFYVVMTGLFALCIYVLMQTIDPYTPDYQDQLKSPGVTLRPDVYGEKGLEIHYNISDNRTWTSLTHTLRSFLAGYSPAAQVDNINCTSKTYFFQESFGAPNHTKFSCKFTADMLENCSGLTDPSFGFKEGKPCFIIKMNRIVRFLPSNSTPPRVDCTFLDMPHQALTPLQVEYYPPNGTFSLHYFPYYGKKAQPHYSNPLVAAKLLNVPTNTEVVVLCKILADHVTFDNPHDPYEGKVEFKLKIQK
Protocol: Compounds of formula I were also tested for anti-secretory activity by their ability to inhibit the highly specific proton transporting enzyme H^+ /K^+ ATPase.
Potential H+/K^+ ATPase inhibitors are evaluated by a technique involving the measurement of aminopyrine accumulation in rabbit isolated gastric glands. Amino-pyrine, which is a weak base, accumulates in acid-secreting cells; therefore, uptake of aminopyrine is increased by secretagogues and an inhibitor of acid secretion will reduce the response to one or more secretagogues depending upon its site of action. Compounds which reduce the response to dibutyryl cyclic adenosine monophosphate (DBcAMP) stimulation are assumed to have an intracellular site of action, and those which reduce the response to both DBcAMP and high potassium ion concentration (K^+) are thought to have an intracellular site of action at the secretory surface of the parietal cell, involving the highly specific proton--transporting enzyme, H^+ /K^+ ATPase. The following test procedure is used:
Rabbit gastric glands are isolated from gastric mucosa from the corpus region of the stomach by a method based on one described by Berglindh T., Obrink K. J., Acta Physiol. Scand. 96, 150-159 (1976). Measurement of aminopyrine uptake is carried out using a modification of the method described by Berglindh T., Hellander H. F., Obrink K. J. (ibid, 97, 401-414, 1976).
Compounds are tested at a concentration of 10^-4 M, initially, and in some cases at lower concentrations, for their ability to inhibit ^14 C-aminopyrine uptake in gastric glands, stimulated by DBcAMP and high K^+ respectively. Results are expressed as the % inhibition of the maximum response to the secretagogue induced by the test compound. An inhibitor of H^+ /K^+ ATPase would be expected to reduce the response to both secretagogues.

[3] = DBcAMP stimulation, read-out: % Inhibition to Stimulation by DBcAMP at 10^-4
[4] = high K+ stimulation, read-out: % Inhibition to Stimulation by K^+ at 10^-4

| Compound | Stress Induced Erosion (Senay & Levine) % Inhibition [1] [%] | inhibition at 100 µM [2, 3] [%] | inhibition at 100 µM [2, 4] [%] |
| --- | --- | --- | --- |
| c1ccc(CSc2nc3cccc4c3n2CCC4)cc1 [Example 1, 2-Benzylthio-5,6,-dihydro-[4H]-imidazo [4,5,1-ij]-quinoline] | 83 | 70 | 111 |
| Clc1cccc(CSc2nc3cccc4c3n2CCC4)c1 [Example 2, 2-(3-Chlorobenzylthio)-5,6,-dihydro-[4H]-imidazo[4,5,1,-ij]quinoline] | – | 69 | 54 |
| Fc1ccc(CSc2nc3cccc4c3n2CCC4)cc1 [Example 3, 5,6-Dihydro-2-(4-fluorophenylmethylthio)-[4H]-imidazo-[4,5,1,-ij]quinoline] | 62 | 6.7 | 76 |
| Clc1ccccc1CSc1nc2cccc3c2n1CCC3 [Example 4, 2-(2-Chlorophenylmethylthio)-5,6-dihydro-[4H]-imidazo-[4,5,1-ij]quinoline] | 55 | 32.9 | 83.5 |
| Clc1ccc(CSc2nc3cccc4c3n2CCC4)cc1 [Example 5, 2-(4-Chlorophenylmethylthio)-5,6-dihydro-[4H]-imidazo-[4,5,1-ij]quinoline] | – | 53 | 109 |
| Fc1ccccc1CSc1nc2cccc3c2n1CCC3 [Example 6, 5,6-Dihydro-2-(2-fluorophenylmethylthio)-[4H]-imidazo-[4,5,1-ij]quinoline] | – | 40.6 | 93 |
| C1=Cc2cccc3nc(SCc4ccccc4)n(c23)C1 [Example 7, 2-Benzylthio-[4H]-imidazo[4,5,1-ij]quinoline] | 54 | 40 | 63 |
